# Assay results from US20180022922A1, “METHOD FOR PREPARING A COLORANT FOR USE IN A HOT MELT INK” (Océ Holding B.V., priority 2016, published 2018).
# Test: Migration test (paper chromatography)
# Type: physicochemical
# Conditions: Wattmann 1-CHR paper, eluent cyclohexane/toluene 50 wt %/50 wt %, judged qualitatively (FIG. 5)
# Description: A chromatography test is performed to provide an (comparative) indication of migration of a colorant on a print substrate. For this, solutions of the colorants to be tested, in dichloromethane are prepared. The prepared solutions contain substantially equal concentrations of colorant. For the purpose of the present invention, the eluent solution consists of a cyclohexane/toluene mixture (50 wt %/50 wt %). A sheet of Wattmann 1-CHR paper is used as a substrate. At about 1 cm from the bottom edge of the paper sheet dots of equal size of the colorant solutions are made (by using a pipette). Each dot is positioned at substantially the same distance from the bottom edge of the paper sheet. Then the sheet is left to dry. A beaker is filled with eluent solution such that the level of eluent solution is less than 1 cm. The dried test sample (paper sheet provided with colorant dots) is placed in the beaker such that the lower edge of the paper sheet touches the bottom of the beaker. Due to capillary flow the eluent solution will flow upward in the paper sheet. This set up is left to stand until the wetted height of paper sheet is at least 1.5 times the height to which the most soluble colorant rises. The results are judged qualitatively. If the colorant dot remains at the starting position, migration is not likely to occur. […]
smiles,measurement,value
Cn1c(=O)cc2c3c(c(NC4CCCCC4)ccc31)C(=O)c1ccccc1-2 [SR149],migration of colorant on paper substrate,significant migration
